# Measured values reported in ChEMBL document CHEMBL4052693, “1,2,4-Triazole and 1,3,4-oxadiazole analogues: Synthesis, MO studies, in silico molecular docking studies, antimalarial as DHFR inhibitor and antimicrobial activities” (Bioorg Med Chem, 2017).
# Activity calls are given as the source filed them. No cut-off for these calls is given here.
# Assays:
# Streptococcus pyogenes = assay: Antimicrobial activity against Streptococcus pyogenes MTCC 442 incubated for overnight by broth micro dilution method; type: functional
# Staphylococcus aureus = assay: Antimicrobial activity against Staphylococcus aureus MTCC 96 incubated for overnight by broth micro dilution method; type: functional
# Escherichia coli = assay: Antimicrobial activity against Escherichia coli MTCC 443 incubated for overnight by broth micro dilution method; type: functional
# Pseudomonas aeruginosa = assay: Antimicrobial activity against Pseudomonas aeruginosa MTCC 1688 incubated for overnight by broth micro dilution method; type: functional
# Candida albicans = assay: Antifungal activity against Candida albicans MTCC 227 incubated for overnight by broth micro dilution method; type: functional
# Aspergillus clavatus [1] = assay: Antifungal activity against Aspergillus clavatus MTCC 1323 incubated for overnight by broth micro dilution method; type: functional
# Plasmodium falciparum = assay: Antimalarial activity against Plasmodium falciparum ring stage forms after 48 hrs; type: functional
# [2] = Cytotoxicity against Schizosaccharomyces pombe Var. Paul Linder 3360 assessed as cell viability at 2 ug/ml after 16 to 18 hrs by trypan blue staining-based compound microscopic analysis (reference value: 93.67 +/- 1.53%); settings: Schizosaccharomyces pombe Var. Paul Linder 3360 cells, read-out: Activity
# [3] = Cytotoxicity against Schizosaccharomyces pombe Var. Paul Linder 3360 assessed as cell viability at 4 ug/ml after 16 to 18 hrs by trypan blue staining-based compound microscopic analysis (reference value: 93.67 +/- 1.53%); settings: Schizosaccharomyces pombe Var. Paul Linder 3360 cells, read-out: Activity
# [4] = Cytotoxicity against Schizosaccharomyces pombe Var. Paul Linder 3360 assessed as cell viability at 6 ug/ml after 16 to 18 hrs by trypan blue staining-based compound microscopic analysis (reference value: 93.67 +/- 1.53%); settings: Schizosaccharomyces pombe Var. Paul Linder 3360 cells, read-out: Activity
# [5] = Cytotoxicity against Schizosaccharomyces pombe Var. Paul Linder 3360 assessed as cell viability at 8 ug/ml after 16 to 18 hrs by trypan blue staining-based compound microscopic analysis (reference value: 93.67 +/- 1.53%); settings: Schizosaccharomyces pombe Var. Paul Linder 3360 cells, read-out: Activity
# [6] = Cytotoxicity against Schizosaccharomyces pombe Var. Paul Linder 3360 assessed as cell viability at 10 ug/ml after 16 to 18 hrs by trypan blue staining-based compound microscopic analysis (reference value: 93.67 +/- 1.53%); settings: Schizosaccharomyces pombe Var. Paul Linder 3360 cells, read-out: Activity
# [7] = tested on: Schizosaccharomyces pombe; assay: Genotoxicity in Schizosaccharomyces pombe Var. Paul Linder 3360 assessed as DNA damage at 2 to 10 ug/ml after 17 to 18 hrs by agarose gel electrophoresis analysis
# Aspergillus clavatus [8] = settings: MTCC 1323
# Dihydrofolate reductase = molecular target: T1, Dihydrofolate reductase (Bos taurus, UniProt P00376); assay: Inhibition of bovine liver DHFR pre-incubated 2 mins before dihydrofolic acid substrate addition and measured over 10 mins in presence of NADPH
# T1 sequence (P00376 whole entry): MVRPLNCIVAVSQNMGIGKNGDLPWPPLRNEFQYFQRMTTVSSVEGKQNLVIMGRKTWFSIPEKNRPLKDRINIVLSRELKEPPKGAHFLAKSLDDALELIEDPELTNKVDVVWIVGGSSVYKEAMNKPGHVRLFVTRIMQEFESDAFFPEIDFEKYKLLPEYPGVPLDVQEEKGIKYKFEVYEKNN
Compound,MIC99 (Streptococcus pyogenes) [µM],MIC99 (Staphylococcus aureus) [µM],MIC99 (Escherichia coli) [µM],MIC99 (Pseudomonas aeruginosa) [µM],MIC99 (Candida albicans),MIC99 (Aspergillus clavatus [1]) [µM],IC50 (Plasmodium falciparum) [nM],viability at 2 ug/ml [2] [%],viability at 4 ug/ml [3] [%],viability at 6 ug/ml [4] [%],viability at 8 ug/ml [5] [%],viability at 10 ug/ml [6] [%],Activity [7],MIC99 (Aspergillus clavatus [8]),IC50 (Dihydrofolate reductase) [nM]
O=[N+]([O-])c1cccc(/C=N/c2ccc(-c3nnc(S)o3)cc2)c1,307,383,613,613,1530 µM,1530,806,78.3,74.3,65.7,56.7,46.3,Toxic,–,–
CCn1cc(C(=O)O)c(=O)c2cc(F)c(N3CCNCC3)cc21 [NORFLOXACIN],31,31,31,31,–,–,–,–,–,–,–,–,–,–,–
Sc1nnc(-c2ccc(/N=C/c3cccs3)cc2)o1,348,697,436,871,inactive,–,802,74.3,70.7,66.3,61,52.7,Toxic,inactive,–
O=C(O)c1cn(C2CC2)c2cc(N3CCNCC3)c(F)cc2c1=O [CIPROFLOXACIN],151,151,75,75,–,–,–,–,–,–,–,–,–,–,–
COc1ccc(/C=N/c2ccc(-c3nnc(S)o3)cc2)cc1,804,804,643,402,3220 µM,1610,790,80.3,72.3,68,63.7,49,Toxic,–,–
Oc1ccc(/C=N/c2ccc(-c3nnc(S)n3/N=C/c3ccc(O)cc3)cc2)cc1,482,602,241,602,inactive,–,282,84.7,79.7,78.7,77,72.3,Toxic,inactive,49.5
NYSTATIN,–,–,–,–,108 µM,–,–,–,–,–,–,–,–,108 µM,–
Nc1ccc(-c2nnc(S)o2)cc1,518,324,518,1300,2590 µM,1300,810,87.3,83,76,71,68.3,Toxic,–,–
CCc1nc(N)nc(N)c1-c1ccc(Cl)cc1 [PYRIMETHAMINE],–,–,–,–,–,–,1000,–,–,–,–,–,–,–,–
CC1(C)S[C@@H]2[C@H](NC(=O)[C@H](N)c3ccccc3)C(=O)N2[C@H]1C(=O)O [AMPICILLIN],286,716,286,286,–,–,–,–,–,–,–,–,–,–,–
Sc1nnc(-c2ccc(/N=C/c3ccc(Cl)cc3)cc2)n1/N=C/c1ccc(Cl)cc1,222,554,554,222,inactive,–,230,83.3,72.3,62.3,55.7,47,Toxic,inactive,34.9
COC1=CC(=O)C[C@@H](C)[C@]12Oc1c(Cl)c(OC)cc(OC)c1C2=O [GRISEOFULVIN],–,–,–,–,1420 µM,284,–,–,–,–,–,–,–,–,–
Sc1nnc(-c2ccc(/N=C/c3ccc(Cl)cc3)cc2)o1,397,794,635,397,inactive,–,301,81.3,73.3,64.7,54.7,47,Toxic,inactive,45
Sc1nnc(-c2ccc(/N=C/c3cccs3)cc2)n1/N=C/c1cccs1,506,633,316,633,2530 µM,–,815,87.7,82,75.3,70.7,63.3,Toxic,inactive,–
Nc1ccc(-c2nnc(S)n2N)cc1,1210,1210,1210,966,4830 µM,2420,960,91.3,85.7,82,75.7,67,Toxic,–,–
Oc1ccc(/C=N/c2ccc(-c3nnc(S)o3)cc2)cc1,673,673,421,842,inactive,–,822,82.3,78.3,72,67,45.3,Toxic,inactive,–
COc1ccc(/C=N/c2ccc(-c3nnc(S)n3/N=C/c3ccc(OC)cc3)cc2)cc1,226,564,282,564,1130 µM,1130,835,79,64.3,59,52.7,38.7,Toxic,–,–
O=C(N[C@H](CO)[C@H](O)c1ccc([N+](=O)[O-])cc1)C(Cl)Cl [CHLORAMPHENICOL],155,155,155,155,–,–,–,–,–,–,–,–,–,–,–
CCN(CC)CCCC(C)Nc1ccnc2cc(Cl)ccc12 (stereo not drawn) [CHLOROQUINE],–,–,–,–,–,–,–,–,–,–,–,–,–,–,30.1
